Results from the NIST ThermoML archive (doi:10.1021/acs.jced.8b00222).
Numbers after ± are expanded uncertainties.

Columns and labels:
[1] = 293.15 K; 101.33 kPa; Liquid; Pycnometric method
[2] = refractive index (Na D-line) (dimensionless); conditions: 293.15 K; 101.33 kPa; Liquid; Standard Abbe refractometry

mass density [1] [kg/m3]	refractive index [2]	Structure (SMILES)
860.13 ± 2.1	1.4187 ± 0.0008	COC1CCCC1 [methoxycyclopentane]
1048.93 ± 2.2	1.3717 ± 0.0008	CC(=O)O [acetic acid]
–	1.3334 ± 0.0005	O [water]

Structure (SMILES)	mass density [1] [kg/m3]	refractive index [2]
O=Cc1ccco1 [2-furaldehyde]	1159.16 ± 2.2	1.5259 ± 0.0008
